Laboratory results as given in US9624288B2, “Engineered receptors and their use” (University of Pittsburgh—Of the Commonwealth System of …, priority 2012, dated 2017).
Like-named read-outs stand apart in the source and are kept apart here.

Tests used:
[1] = tested on: CFA-induced inflammation of the hind paw; test: Plantar (Hargreaves) test of thermal hypersensitivity after CFA-induced inflammation; type: in vivo, rat
Procedure: The plantar sensitivity to heat-induced pain was examined using a plantar algesia meter (Model 390G; IITC Life Science, Woodland Hills, Calif.; active intensity, 23%). Rats were placed inside a plastic divider on a constant-temperature glass plate and acclimated to the environment for at least 20 minutes before testing. A heat source was focused directly onto the plantar surface of the hind paw. Once activated, the apparatus applied a continuous heat stimulus to the plantar surface to evoke a distinctive reflex of paw withdrawal. The rats were examined with at least a five-minute interval between consecutive tests. Paw withdrawal latencies were recorded and averaged for each hind paw. A 22-second automatic cut-off time was set to prevent tissue damage from heating.

[2] = tested on: CFA-induced inflammation of the hind paw; conditions: for mechanical hypersensitivity, EG channel not activated: EG rats before cysteamine versus control group
Procedure: In one experiment, 8 rats were assigned to two groups to receive either EG expression plasmid or the control plasmid […] the EG insertion. […] Thereafter, inflammation was induced in the same hind paw by complete Freund's adjuvant (CFA) injection (50 μl). Hypersensitivity was measured using a Von Frey pain-testing device after CFA injection. This test measures the maximum force applied to the paw through a flexible thin wire before paw withdrawal. Note that this version of the channel design, EG3 (SEQ ID NO: 12), requires a small agonist molecule (propylamine or cysteamine) to open the Cl^− channels.
Rats were randomly assigned to two groups to receive a subcutaneous injection of 1 mg (in 200 μl) purified EG expression vector into the left hind paw or the control plasmid vector without the EG insertion in an identical fashion. […] After CFA injections, the rats were tested both before and after cysteamine administration to assess the specific analgesic effects from the expressed EG channels.
The Institutional Animal Care and Use Committee at the University of Pittsburgh approved all animal procedures used in the studies. Male Sprague-Dawley rats, weighing 220-250 g, were obtained from Harlan Laboratories, allowed to acclimate to the housing and experimental facilities, evaluated for baseline behavioral response to thermal and mechanical pain, and then subjected to inflammatory pain model and behavioral testing. The expression vectors, 1000 μg in a volume of 200 μl phosphate-buffered saline (PBS), were injected directly into the plantar of the left hind paw with a 27-gauge needle under brief 2.5% isoflurane anesthesia. One week after the vector injection, 50 μl of CFA (Sigma, St. Louis, Mo., USA) were injected into the same hind paw subcutaneously with a 27-gauge needle under brief isoflurane anesthesia, as described previously {Fraser, 2000 #180}.
Animals were placed above a grid floor inside a plastic divider. Thresholds to the mechanical pressures applied directly onto the plantar by a blunt metal filament of 100 mm in length and 0.38 mm in diameter were assessed using a custom-made von Frey apparatus. The apparatus uses a high precision load cell (100 g capacity and 0.01 g accuracy) interfaced with a PASPORT load cell amplifier (Model PS-2205, PASCO Scientific, Roseville, Calif.) for continuously measuring the forces applied to the plantar through the metal filament. The DataStudio software from PASCO Scientific was used to record the entire time course of the applied forces and the maximum force immediately before the paw withdrawal. The threshold values were determined as a mean of at least three separate measurements under each testing condition.
Both von Frey and plantar tests were conducted using the schedule as depicted in FIG. 3a. On each testing day after CFA injection, behavioral evaluations were repeated before and at least 15 min after cysteamine administration. Cysteamine (500 μl of 100 mM solution in PBS) was injected subcutaneously elsewhere on the body to prevent tissue damage from repeated injections.

[3] = biological target: T1, EG3 (SEQ ID NO: 12) ELIC-GlyR (EG) Cl- channel (Dickeya chrysanthemi, UniProt P0C7B7, INS163G); test: Two-electrode voltage clamp, amine agonist activation of the EG channel in Xenopus oocytes; type: cell-based, Erwinia chrysanthemi / human; conditions: for Hill slope / Hill coeff.: agonist dose response on EG channel
T1 construct: expressed in transfected cells; host or cells: Xenopus laevis oocytes injected with construct DNA in the pAAV vector
Procedure: (§1) For pH measurements, 10 mM MES was added. […] Non-linear regressions were performed using Prism software (Graphpad). […] (FIG. 2).

[4] = prescription drug for cystinosis; cited from earlier work
[5] = biological target: T2, EGRAFY mutant (R91A, F188Y; SEQ ID NO: 15) (Dickeya chrysanthemi, UniProt P0C7B7, F187Y/INS163G/R91A); test: Two-electrode voltage clamp, amine agonist activation of the EGRAFY mutant in oocytes; type: cell-based, Erwinia chrysanthemi / human
T2 construct: expressed in transfected cells; host or cells: Xenopus laevis oocytes
T2 sequence (P0C7B7 other isoform, or with tags, fused parts or gaps R91A/INS163G/F187Y): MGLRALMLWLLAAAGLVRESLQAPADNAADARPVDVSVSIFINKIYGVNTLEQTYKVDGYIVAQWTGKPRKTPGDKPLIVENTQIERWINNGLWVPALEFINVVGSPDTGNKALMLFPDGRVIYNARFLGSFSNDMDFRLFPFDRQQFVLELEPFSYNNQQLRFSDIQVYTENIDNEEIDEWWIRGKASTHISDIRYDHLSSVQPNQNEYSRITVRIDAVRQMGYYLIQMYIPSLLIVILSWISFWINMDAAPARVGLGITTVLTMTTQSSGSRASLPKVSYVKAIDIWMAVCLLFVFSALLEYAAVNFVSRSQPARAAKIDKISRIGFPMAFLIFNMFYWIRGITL
Procedure: as §1

EG channel = EG channel (Dickeya chrysanthemi, UniProt P0C7B7, INS163G)
Procedure: Non-linear regressions were performed using Prism software (Graphpad).

ELIC-GlyR chimeras = test: Cysteamine response of ELIC-GlyR chimera constructs in Xenopus oocytes; type: cell-based, Erwinia chrysanthemi / human
Description: The EG chimera was constructed by fusing the extracellular domain of ELIC with the transmembrane domain of the α1 subunit of human GlyR. Five constructs were made to test the importance of interface elements at the fusion junction (pre-TM1), the loop between transmembrane helices 2 and 3 (TM23), and C-terminus (Figure S1 a). In addition, the long cytoplasmic loop was removed to facilitate homogeneous expression (i.e., “VSR . . . KID” was replaced with “[…]”). All designed constructs expressed functional channels in Xenopus oocytes and were responsive to the agonist cysteamine. The constructs mostresponsive to cysteamine, EG and EGd (Figure S1 b), included a native GlyR TM23 loop and an ELIC C-terminus (Figure S1). The fusion junction had less effect on cysteamine response (compare EG and EGd).

Molecule: NCCS [cysteamine]
- thermal hypersensitivity after cysteamine administration ([1]; control plasmid rats (no EG), after CFA): not inherently an analgesic
- thermal hypersensitivity after cysteamine administration ([1]; rats expressing EG, after CFA): significantly attenuated
- mechanical hypersensitivity / pain scores after cysteamine administration ([2]; control plasmid rats (no EG), after CFA, listed as Cysteamine): no analgesia
- EC50 [3]: 960 ± 120 µM
- Hill slope / Hill coeff. [3]: 1.1±0.1
- safety in clinical use [4]: safe with no psychoactive effects

Molecule: CCCN [propylamine]
- increase in potency in the EGRAFY mutant as compared to the EG channel [5]: ~3 orders of magnitude
- Hill coeff. ([5]; EGRAFY mutant, n=6): 0.98±0.07
- EC50 [3]: 740 ± 110 µM
- Hill slope / Hill coeff. [3]: 0.5±0.04

B1: EG channel: ELIC extracellular domain fused to human GlyR α1 transmembrane domain; amine-gated Cl- channel, delivered as expression plasmid in vivo (protein)
chain: MGLRALMLWLLAAAGLVRESLQAPADNAADARPVDVSVSIFINKIYGVNTLEQTYKVDGYIVAQWTGKPRKTPGDKPLIVENTQIERWINNGLWVPALEFINVVGSPDTGNKRLMLFPDGRVIYNARFLGSFSNDMDFRLFPFDRQQFVLELEPFSYNNQQLRFSDIQVYTENIDNEEIDEWWIRGKASTHISDIRYDHLSSVQPNQNEFSRITVRIDAVRQMGYYLIQMYIPSLLIVILSWISFWINMDAAPARVGLGITTVLTMTTQSSGSRASLPKVSYVKAIDIWMAVCLLFVFSALLEYAAVNFVSRSQPARAAKIDKISRIGFPMAFLIFNMFYWIRGITL
modifications: Engineered Chloride Channel Receptor
notes: ELIC extracellular domain fused to human GlyR α1 transmembrane domain; amine-gated Cl- channel, delivered as expression plasmid in vivo
- hypersensitivity to heat-induced pain, EG channel not activated ([1]; EG rats before cysteamine versus control group): partially alleviated
- latency to paw withdrawal, EG injection compared to the control ([1]; after CFA, EG n=4, control n=5): significant attenuation of thermal hypersensitivity
- mechanical hypersensitivity, EG channel not activated ([2]; after CFA): did not produce measurable changes
- mechanical hypersensitivity, EG channel not activated ([2]; after CFA, listed as EG): no measureable effects
- mechanical hypersensitivity, EG channel not activated ([2]; after CFA, listed as EG channels): little measurable changes
- basal mechanical and thermal thresholds ([2]; rat, in vivo): neither EG nor the control plasmids caused measureable changes
- shift in reversal potential upon replacing Na+ with choline (EG channel): no significant shift
- shift in reversal potential upon replacing Cl- with gluconate (EG channel; 130 mM external solution): 50 mV
- cysteamine response of the construct (ELIC-GlyR chimeras): mostresponsive
